PMC3618488 (Chemical communications (Cambridge, England), 2013)
Like-named read-outs stand apart in the source and are kept apart here.

Molecular target: Pseudomonas aeruginosa elastase (LasB) (Pseudomonas aeruginosa, UniProt P14756)
Experiment: biochemical
Type: biochemical
Details: for fold reduction in potency relative to tropolone (3): against LasB, compared with 3

Pseudomonas aeruginosa elastase (LasB), sequence (P14756 198-498): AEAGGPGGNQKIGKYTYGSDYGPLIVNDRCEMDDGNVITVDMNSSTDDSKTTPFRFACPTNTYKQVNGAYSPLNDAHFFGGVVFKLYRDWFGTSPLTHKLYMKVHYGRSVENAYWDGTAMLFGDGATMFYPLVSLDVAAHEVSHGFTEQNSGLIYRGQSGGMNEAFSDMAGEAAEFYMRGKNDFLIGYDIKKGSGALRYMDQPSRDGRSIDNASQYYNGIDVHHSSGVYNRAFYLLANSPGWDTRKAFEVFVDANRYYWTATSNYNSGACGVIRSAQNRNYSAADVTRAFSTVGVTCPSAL

| Compound | IC50 [µM] | fold reduction in potency relative to tropolone (3) | IC50 (read-out: IC50 for LasB inhibition) [µM] |
| --- | --- | --- | --- |
| CC(C)c1cccc(=O)c(O)c1 [compound 5, β-thujaplicin] | 1340 ± 370 | ~ 3 fold | – |
| Nc1ccc(O)c(=O)cc1 [compound 6, 5-aminotropolone] | – | – | 180 ± 1 |
| acetyltropolone [compound 4] | – | ~ 3 fold | – |
